Assay results taken from patent US9034914B2, “Pharmaceutical composition comprising rotigotine salts (acid or Na), especially for iontophoresis” (UCB Pharma GmbH, priority 2009, dated 2015).
Like-named read-outs stand apart in the source and are kept apart here.

Type: in vitro ADME, human
Details: for steady state flux ± s.d., iontophoresis stage / Mean steady state flux ± sd: 9 h
Protocol: The preparation of human stratum corneum (HSC) was performed according to the method described previously (Nugroho et al., (Nugroho et al., J. Control Release (2005) 103, 393-403) which is incorporated herein by reference. Briefly, within 24 hours after surgical removal of the human skin residual subcutaneous fat was removed. Dermatomed human skin (DHS) was obtained by dermatoming the skin to a thickness of about 300 μm. In order to obtain HSC, DHS was incubated with the dermal side on Whatman paper soaked in a solution of 0.1% trypsin in 150 mM phosphate buffered saline (PBS) pH 7.4 (NaCl: 8 g·L^−1, Na2HPO4: 2.86 g·L^−1, KH2PO4: 0.2 g·L^−1, KCl: 0.19 g·L^−1) overnight at 4° C. and subsequently for 1 hour at 37° C. after which HSC was peeled off from the underlying viable epidermis and dermis. HSC was subsequently washed in a 0.1% trypsin inhibitor solution in Millipore water and several times in water and stored in a desiccator in a N2 environment.
The in vitro transport studies were done by using a 9-channel computer controlled power supply in order to provide a constant direct current (Electronics Department, Gorlaeus Laboratories, Leiden University, The Netherlands) during iontophoresis. The system was equipped with differential input channels per current source enabling on-line measurement of the electric resistance across HSC in each diffusion cell. Ag/AgCl was used as driver electrode pair. All transport experiments were carried out, using a three chamber continuous flow through cell as described elsewhere (Nugroho et al., J. Control Release (2005) 103, 393-403). The donor formulation, buffered with a 10 mM citric buffer, was applied at the anodal side. The cathodal chamber was filled with PBS pH 7.4. The acceptor phase, maintained at 32° C., was continuously perfused with PBS pH 6.2 (NaCl: 8 g·L^−1, KCl: 0.19 g·L^−1, Na2HPO4.2H2O: 0.43 g·L^−1, KH2PO4: 0.97 g·L^−1) at a flow rate of 7.0 ml·h^−1. Unless described elsewhere, the following protocol for the iontophoresis experiments was used: 6 hours of passive diffusion, followed by 9 hours of iontophoresis with a current density of 500 μA·cm^−2 and 5 hours of passive diffusion. Samples were collected every hour with an automatic fraction collector (ISCORetriever IV, Beun De Ronde B V, Abcoude, The Netherlands). The specific conditions of the individual transport studies are described below.
Prior to and at the end of a transport study the pH of donor and acceptor compartment was measured. All samples of the iontophoretic transport studies were analyzed by RP-HPLC using a Superspher® 60 RP-select B, 75 mm-4 mm column (Merck KGaA, Darmstadt, Germany). Rotigotine was detected using a scanning fluorescence detector (Waters™ 474, Millipore, Milford, Mass., USA) at excitation and emission wavelengths of 276 and 302 nm. Acetaminophen was detected using a UV detector (Dual λ Absorbance Detector 2487, Waters, Milford, USA) at a wavelength of 254 nm. Filtered and degassed mobile phase contained 60% H2O (v/v), 40% ACN (v/v) and 0.05% methanesulfonic acid (v/v). The injection volume was 50 μL and the flow rate was set to 1.0 mL·min^−1.
To calculate the steady state flux during passive and iontophoretic transport, the cumulative flux of the transport was plotted as a function of time. The steady state flux was estimated from the linear part of the slope of this plot according to the permeation lag-time method^7. All data are presented as mean±standard deviation (s.d.). When a statistical analysis was performed comparing only 2 groups, a Students t-test was used. When 3 or more groups were compared, a 1-way ANOVA statistical analysis was executed. If the overall p-value was less than 0.05, a bonferonni post-test was applied to compare different groups. For all statistical analysis a significance level of p<0.05 was used. […]

## CCCN(CCc1cccs1)[C@H]1CCc2c(O)cccc2C1.O=P(O)(O)O [rotigotine.H3PO4, rotigotine dihydrogen phosphate]
Citric buffer pH 5, FIG. 3
  time to reach steady state flux after current application: within four hours
human, 6 h, 1.24 mg/ml, pH 6
  steady state flux ± s.d., passive stage: 4.1 ± 1.9 μg/cm^2/h
human, 6 h, 1.28 mg/ml, pH 5
  steady state flux ± s.d., passive stage: 0.5 ± 0.2 μg/cm^2/h
human, 6 h, 1.42 mg/ml, pH 6
  steady state flux ± s.d., passive stage: 3.2 ± 0.2 μg/cm^2/h
human, 6 h, 1.46 mg/ml, pH 5
  steady state flux ± s.d., passive stage: 0.9 ± 0.3 μg/cm^2/h
human, 6 h, 3.11 mg/ml, pH 5
  steady state flux ± s.d., passive stage: 1.0 ± 0.1 μg/cm^2/h
human, 6 h, 4.13 mg/ml, pH 6
  steady state flux ± s.d., passive stage: 9.3 ± 0.9 μg/cm^2/h
human, 6 h, 4.3 mg/ml, pH 6
  steady state flux ± s.d., passive stage: 12.3 ± 0.9 μg/cm^2/h
human, 6 h, 6.95 mg/ml, pH 5
  steady state flux ± s.d., passive stage: 2.3 ± 0.5 μg/cm^2/h
human, 6 h, 9.88 mg/ml, pH 5.5
  steady state flux ± s.d., passive stage: 7.7 ± 0.5 μg/cm^2/h
human, 6 h, 15.09 mg/ml, pH 5
  steady state flux ± s.d., passive stage: 3.6 ± 0.5 μg/cm^2/h
human, 6 h, 31.3 mM, pH 5.5
  Flux: 24.4±1.9 nmol·cm^−2·h^−1
human, 6 h, pH 5
  maximum passive flux close to saturation in the donor phase: 10.8±1.9 nmol·cm^−2·h^−1
human, 6 h, pH 6
  maximum passive flux close to saturation in the donor phase: 24.9 nmol·cm^−2·h^−1
human, 1.24 mg/ml, pH 6
  steady state flux ± s.d., iontophoresis stage: 26.4 ± 1.3 μg/cm^2/h
human, 1.28 mg/ml, pH 5
  steady state flux ± s.d., iontophoresis stage: 20.0 ± 4.9 μg/cm^2/h
human, 1.4 mg/ml, pH 5
  Mean steady state flux ± sd: 22.1 ± 2.5 μg/cm^2/h
human, 1.42 mg/ml, pH 6
  steady state flux ± s.d., iontophoresis stage: 25.1 ± 3.3 μg/cm^2/h
human, 1.46 mg/ml, pH 5
  steady state flux ± s.d., iontophoresis stage: 22.1 ± 2.5 μg/cm^2/h
human, 3 mg/ml, pH 5
  Mean steady state flux ± sd: 26.0 ± 2.1 μg/cm^2/h
human, 3.11 mg/ml, pH 5
  steady state flux ± s.d., iontophoresis stage: 26.0 ± 2.1 μg/cm^2/h
human, 4.13 mg/ml, pH 6
  steady state flux ± s.d., iontophoresis stage: 43.0 ± 2.6 μg/cm^2/h
human, 4.3 mg/ml, pH 6
  steady state flux ± s.d., iontophoresis stage: 47.1 ± 1.8 μg/cm^2/h
human, 6.95 mg/ml, pH 5
  steady state flux ± s.d., iontophoresis stage: 33.7 ± 4.7 μg/cm^2/h
human, 9.88 mg/ml, pH 5.5
  steady state flux ± s.d., iontophoresis stage: 47.9 ± 3.1 μg/cm^2/h
human, 15.09 mg/ml, pH 5
  steady state flux ± s.d., iontophoresis stage: 41.5 ± 3.4 μg/cm^2/h
human, 24 h, pH 5
  decrease in steady state flux resulting from the decrease in donor concentration: 10%
human, pH 5
  increase in maximum flux compared to rotigotine.HCl: 170%
  maximum iontophoretic flux: 135.8±12.5 nmol·cm^−2·h^−1
No current, prior to iontophoresis
  time to reach steady state of passive transport: ≤ 6 h
pH 5.5, 31.3 mM, 68 mM NaCl, stepwise increase of current density
  time to reach steady state flux after current application: ≤ 6 h
